Species on record: Rattus norvegicus
Assay: Open TG-GATES - Regimen: Single
Format: toxicity, organism-based, Sprague-Dawley
Parameters: regimen Single, gender Male, age 6 weeks
Conditions: in vivo, po, route gavage; for APTT / Bas / Eos / Fbg / Hb / Ht / Lym / MCH / MCHC / MCV / Mono / Neu / PT / Plat / RBC / Ret / WBC: tissue Blood; for KIDNEY_L / KIDNEY_R / KIDNEY_TOTAL: tissue Kidney; for LIVER: tissue Liver
[1] = 100 mg/kg, 3 h, tissue Plasma, dose level Low
[2] = 100 mg/kg, 6 h, tissue Plasma, dose level Low
[3] = 100 mg/kg, 9 h, tissue Plasma, dose level Low
[4] = 100 mg/kg, 24 h, dose level Low
[5] = 100 mg/kg, 24 h, tissue Plasma, dose level Low

## C[C@H](CS)C(=O)N1CCC[C@H]1C(=O)O [CAPTOPRIL]
0 mg/kg, 24 h, tissue Plasma, dose level Control
  gamma-GTP: 1 IU/L
100 mg/kg, 3 h, dose level Low
  TERMINAL_BW: 224.3 g
  APTT: 16.3 s
  Bas: 0%
  Eos: 1%
  Fbg: 207 mg/dL
  Hb: 13.1 g/dL
  Ht: 40.2%
  Lym: 82.2%
  MCH: 21.1 pg
  MCHC: 32.7%
  MCV: 64.4 fL
  Mono: 4.8%
  Neu: 12.2%
  PT: 11.9 s
  Plat: 123.2 x10_4/uL
  RBC: 624.2 x10_4/ul
  Ret: 7.4%
  KIDNEY_L: 1 g
  KIDNEY_R: 1 g
  KIDNEY_TOTAL: 2.1 g
[1]
  ALP: 996 IU/L
  ALT: 35.6 IU/L
  AST: 67 IU/L
  BUN: 13.8 mg/dL
  CRE: 0.5 mg/dL
  DBIL: 0.008 mg/dL
  GLC: 205.2 mg/dL
  IP: 9.7 mg/dL
  K: 4.9 meq/L
  LDH: 113.6 IU/L
  Na: 137.8 meq/L
  PL: 131.8 mg/dL
  RALB: 3.6 g/dL
  TBIL: 0.4 mg/dL
  TC: 70.4 mg/dL
  TG: 68 mg/dL
  TP: 5.5 g/dL
  gamma-GTP: 2 IU/L
100 mg/kg, 6 h, dose level Low
  TERMINAL_BW: 225.5 g
  APTT: 16.3 s
  Bas: 0%
  Eos: 1%
  Hb: 12.9 g/dL
  Ht: 39.5%
  Lym: 76.4%
  MCH: 21.8 pg
  MCHC: 32.8%
  MCV: 66.5 fL
  Mono: 5.8%
  Neu: 17%
  PT: 12.2 s
  Plat: 113.6 x10_4/uL
  RBC: 595.2 x10_4/ul
  Ret: 7.9%
  WBC: 126.2 x10_2/uL
  KIDNEY_L: 1.1 g
  KIDNEY_R: 1.1 g
  KIDNEY_TOTAL: 2.2 g
[2]
  ALP: 794.8 IU/L
  ALT: 30.8 IU/L
  AST: 55.6 IU/L
  BUN: 17.4 mg/dL
  CRE: 0.6 mg/dL
  DBIL: 0.028 mg/dL
  GLC: 192.4 mg/dL
  IP: 9.6 mg/dL
  K: 4.9 meq/L
  LDH: 73.8 IU/L
  Na: 138.6 meq/L
  PL: 130.6 mg/dL
  RALB: 3.7 g/dL
  TBIL: 0.4 mg/dL
  TC: 69.8 mg/dL
  TG: 62.6 mg/dL
  TP: 5.3 g/dL
  gamma-GTP: 1.6 IU/L
100 mg/kg, 9 h, dose level Low
  TERMINAL_BW: 220.6 g
  APTT: 16.3 s
  Bas: 0%
  Eos: 1%
  Fbg: 205.8 mg/dL
  Hb: 12.8 g/dL
  Ht: 38.8%
  Lym: 74%
  MCH: 21.6 pg
  MCHC: 33%
  MCV: 65.6 fL
  Mono: 5.4%
  Neu: 19.2%
  PT: 12.1 s
  Plat: 119.2 x10_4/uL
  RBC: 591.8 x10_4/ul
  Ret: 8.2%
  KIDNEY_L: 1 g
  KIDNEY_R: 1 g
  KIDNEY_TOTAL: 2 g
  LIVER: 9 g
[3]
  ALP: 891.4 IU/L
  ALT: 30.6 IU/L
  AST: 59.2 IU/L
  BUN: 13.4 mg/dL
  CRE: 0.4 mg/dL
  DBIL: 0.084 mg/dL
  GLC: 202.4 mg/dL
  K: 4.7 meq/L
  LDH: 71 IU/L
  Na: 138.6 meq/L
  PL: 122.4 mg/dL
  RALB: 3.6 g/dL
  TBIL: 0.3 mg/dL
  TC: 65.2 mg/dL
  TG: 55.8 mg/dL
  TP: 5.2 g/dL
  gamma-GTP: 1.8 IU/L
[4]
  TERMINAL_BW: 234.4 g
  APTT: 17.2 s
  Bas: 0%
  Eos: 1.4%
  Hb: 12.8 g/dL
  Ht: 38.4%
  Lym: 71.8%
  MCH: 21.1 pg
  MCHC: 33.2%
  MCV: 63.6 fL
  Mono: 6.4%
  Neu: 20%
  PT: 11.6 s
  Plat: 114.1 x10_4/uL
  RBC: 604.4 x10_4/ul
  Ret: 8.7%
  WBC: 82.6 x10_2/uL
  KIDNEY_L: 1.1 g
  KIDNEY_R: 1.1 g
  KIDNEY_TOTAL: 2.3 g
  LIVER: 11.3 g
[5]
  ALT: 40.8 IU/L
  AST: 68.8 IU/L
  BUN: 15.8 mg/dL
  CRE: 0.6 mg/dL
  Ca: 11.1 mg/dL
  DBIL: 0.058 mg/dL
  GLC: 189.4 mg/dL
  IP: 8.5 mg/dL
  K: 4.6 meq/L
  LDH: 113 IU/L
  Na: 139 meq/L
  PL: 147.6 mg/dL
  RALB: 4 g/dL
  TBIL: 0.3 mg/dL
  TC: 78.8 mg/dL
  TG: 92.8 mg/dL
  TP: 5.8 g/dL
